Results on 6 compounds are retold here after ChEMBL document CHEMBL4804281, “STK4 inhibitors for treatment of hematologic malignancies” (2020).

Experiment [1] addresses Misshapen-like kinase 1 (Homo sapiens) (UniProt Q8N4C8). The experiment is described as follows: Inhibition of MINK in human NCI-H929 cells at 10 uM by mass spectroscopic analysis relative to control. Type of experiment: cell-based.
The target of experiment [2] is Rho-associated protein kinase 2 (Homo sapiens) (UniProt O75116). As to the kind of experiment: Inhibition of ROCK2 in human NCI-H929 cells at 10 uM by mass spectroscopic analysis relative to control. Type of experiment: cell-based.
Experiment [3] deals with RAC-beta serine/threonine-protein kinase (Homo sapiens) (UniProt P31751). As to the kind of experiment: Inhibition of AKT2 in human NCI-H929 cells at 10 uM by mass spectroscopic analysis relative to control. Type of experiment: cell-based.
In experiment [4] the target is Ribosomal protein S6 kinase alpha-2 (Homo sapiens) (UniProt Q15349). The experiment is described as follows: Inhibition of RSK3 domain 1 in human NCI-H929 cells at 10 uM by mass spectroscopic analysis relative to control. Type of experiment: cell-based.
Experiment [5] concerns the target DNA-dependent protein kinase catalytic subunit (Homo sapiens) (UniProt P78527). The experiment is described as follows: Inhibition of DNAPK in human NCI-H929 cells at 10 uM by mass spectroscopic analysis relative to control. Type of experiment: cell-based.
The target in experiment [6] is T1, Tyrosine-protein kinase receptor TYRO3 (Homo sapiens) (UniProt Q06418).
T1 sequence (whole entry): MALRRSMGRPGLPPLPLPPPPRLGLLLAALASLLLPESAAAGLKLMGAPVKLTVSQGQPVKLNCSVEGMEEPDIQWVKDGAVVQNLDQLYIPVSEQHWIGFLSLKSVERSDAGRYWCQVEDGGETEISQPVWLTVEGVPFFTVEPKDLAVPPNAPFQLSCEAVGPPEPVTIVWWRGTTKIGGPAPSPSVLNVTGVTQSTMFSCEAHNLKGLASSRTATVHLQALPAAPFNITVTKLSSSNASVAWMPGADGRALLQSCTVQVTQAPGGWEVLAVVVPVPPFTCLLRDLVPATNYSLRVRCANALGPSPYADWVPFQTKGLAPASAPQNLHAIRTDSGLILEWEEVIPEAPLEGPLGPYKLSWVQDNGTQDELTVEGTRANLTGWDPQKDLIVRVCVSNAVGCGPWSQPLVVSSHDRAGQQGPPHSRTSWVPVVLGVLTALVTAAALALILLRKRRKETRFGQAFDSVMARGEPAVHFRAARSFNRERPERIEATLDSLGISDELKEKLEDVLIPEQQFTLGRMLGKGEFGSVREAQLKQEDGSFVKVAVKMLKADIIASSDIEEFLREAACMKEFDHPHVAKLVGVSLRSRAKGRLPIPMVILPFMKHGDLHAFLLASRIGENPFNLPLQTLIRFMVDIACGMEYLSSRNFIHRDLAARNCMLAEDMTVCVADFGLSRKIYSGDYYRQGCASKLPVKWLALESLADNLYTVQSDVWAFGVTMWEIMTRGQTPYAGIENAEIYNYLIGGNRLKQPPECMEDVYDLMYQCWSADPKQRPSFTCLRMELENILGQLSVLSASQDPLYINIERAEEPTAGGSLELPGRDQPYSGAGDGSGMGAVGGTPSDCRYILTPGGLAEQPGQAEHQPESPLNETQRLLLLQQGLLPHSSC
As to the kind of experiment: Inhibition of TYRO3 in human NCI-H929 cells at 10 uM by mass spectroscopic analysis relative to control. Type of experiment: cell-based.

Experiment [7] addresses Dual specificity mitogen-activated protein kinase kinase 2 (Homo sapiens) (UniProt P36507). As to the kind of experiment: Inhibition of MAP2K2 in human NCI-H929 cells at 10 uM by mass spectroscopic analysis relative to control. Type of experiment: cell-based.
Experiment [8] concerns the target T2, Serine/threonine-protein kinase TAO1 (Homo sapiens) (UniProt Q7L7X3).
T2 sequence (whole entry): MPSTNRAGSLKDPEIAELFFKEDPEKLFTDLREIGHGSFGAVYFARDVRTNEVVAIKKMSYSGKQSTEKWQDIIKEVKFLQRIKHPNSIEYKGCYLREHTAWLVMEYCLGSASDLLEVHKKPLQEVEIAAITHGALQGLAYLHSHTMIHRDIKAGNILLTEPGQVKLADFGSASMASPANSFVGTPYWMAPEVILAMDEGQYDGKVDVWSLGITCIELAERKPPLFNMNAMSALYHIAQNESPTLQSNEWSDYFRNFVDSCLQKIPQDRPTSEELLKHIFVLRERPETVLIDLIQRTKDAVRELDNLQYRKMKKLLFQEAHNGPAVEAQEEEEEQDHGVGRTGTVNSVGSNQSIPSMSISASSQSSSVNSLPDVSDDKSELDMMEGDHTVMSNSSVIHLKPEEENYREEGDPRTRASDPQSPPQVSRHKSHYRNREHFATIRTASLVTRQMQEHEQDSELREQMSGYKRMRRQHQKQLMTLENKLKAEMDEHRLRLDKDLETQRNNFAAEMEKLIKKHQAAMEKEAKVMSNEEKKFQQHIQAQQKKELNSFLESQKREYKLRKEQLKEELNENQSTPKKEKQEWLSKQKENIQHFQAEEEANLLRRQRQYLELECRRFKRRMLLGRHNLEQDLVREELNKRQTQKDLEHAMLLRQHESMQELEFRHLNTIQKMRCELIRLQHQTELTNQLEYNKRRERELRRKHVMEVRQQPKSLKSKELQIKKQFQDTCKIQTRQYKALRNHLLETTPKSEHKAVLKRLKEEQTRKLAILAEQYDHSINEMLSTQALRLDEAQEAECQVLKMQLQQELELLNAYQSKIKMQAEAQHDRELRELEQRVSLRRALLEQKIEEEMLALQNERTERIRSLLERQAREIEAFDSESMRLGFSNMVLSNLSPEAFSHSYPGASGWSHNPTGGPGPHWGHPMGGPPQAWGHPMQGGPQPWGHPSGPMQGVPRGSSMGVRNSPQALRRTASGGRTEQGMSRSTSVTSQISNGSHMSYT
The experiment is described as follows: Inhibition of TAO1 in human NCI-H929 cells at 10 uM by mass spectroscopic analysis relative to control. Type of experiment: cell-based.

In experiment [9] the test system is MAP4K2 (Homo sapiens). As to the kind of experiment: Inhibition of GCK in human NCI-H929 cells at 10 uM by mass spectroscopic analysis relative to control.
Experiment [10] addresses T3, Aurora kinase C (Homo sapiens) (UniProt Q9UQB9).
T3 sequence (whole entry): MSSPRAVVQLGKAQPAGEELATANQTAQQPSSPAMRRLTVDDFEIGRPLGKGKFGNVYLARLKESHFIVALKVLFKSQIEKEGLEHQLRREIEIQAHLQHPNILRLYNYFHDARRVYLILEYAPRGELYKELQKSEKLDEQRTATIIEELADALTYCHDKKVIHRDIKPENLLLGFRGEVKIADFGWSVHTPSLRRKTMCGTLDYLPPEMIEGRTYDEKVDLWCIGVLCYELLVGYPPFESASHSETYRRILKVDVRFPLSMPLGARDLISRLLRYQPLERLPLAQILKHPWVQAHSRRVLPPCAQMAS
As to the kind of experiment: Inhibition of AURC in human NCI-H929 cells at 10 uM by mass spectroscopic analysis relative to control. Type of experiment: cell-based.

For experiment [11], the target named is 5'-AMP-activated protein kinase catalytic subunit alpha-1 (Homo sapiens) (UniProt Q13131). The experiment is described as follows: Inhibition of AMPKa1 in human NCI-H929 cells at 10 uM by mass spectroscopic analysis relative to control. Type of experiment: cell-based.
5'-AMP-activated protein kinase catalytic subunit alpha-1 (Homo sapiens), sequence (Q13131 whole entry, looked up): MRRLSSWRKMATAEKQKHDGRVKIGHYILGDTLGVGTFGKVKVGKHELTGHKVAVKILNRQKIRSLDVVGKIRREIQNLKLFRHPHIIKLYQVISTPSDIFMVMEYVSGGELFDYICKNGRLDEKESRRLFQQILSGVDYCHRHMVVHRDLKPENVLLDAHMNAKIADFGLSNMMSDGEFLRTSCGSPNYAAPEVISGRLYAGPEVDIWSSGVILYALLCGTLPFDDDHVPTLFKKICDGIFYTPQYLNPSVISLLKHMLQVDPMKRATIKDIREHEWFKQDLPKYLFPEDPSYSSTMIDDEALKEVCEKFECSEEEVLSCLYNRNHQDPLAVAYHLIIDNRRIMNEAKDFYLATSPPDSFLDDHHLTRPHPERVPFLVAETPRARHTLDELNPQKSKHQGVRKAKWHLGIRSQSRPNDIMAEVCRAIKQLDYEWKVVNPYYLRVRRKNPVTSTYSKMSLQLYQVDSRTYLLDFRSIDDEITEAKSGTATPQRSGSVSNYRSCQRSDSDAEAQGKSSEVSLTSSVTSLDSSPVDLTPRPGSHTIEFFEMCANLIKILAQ

Ribosomal protein S6 kinase alpha-2 (Homo sapiens), sequence (Q15349 whole entry, the tested form may be a part): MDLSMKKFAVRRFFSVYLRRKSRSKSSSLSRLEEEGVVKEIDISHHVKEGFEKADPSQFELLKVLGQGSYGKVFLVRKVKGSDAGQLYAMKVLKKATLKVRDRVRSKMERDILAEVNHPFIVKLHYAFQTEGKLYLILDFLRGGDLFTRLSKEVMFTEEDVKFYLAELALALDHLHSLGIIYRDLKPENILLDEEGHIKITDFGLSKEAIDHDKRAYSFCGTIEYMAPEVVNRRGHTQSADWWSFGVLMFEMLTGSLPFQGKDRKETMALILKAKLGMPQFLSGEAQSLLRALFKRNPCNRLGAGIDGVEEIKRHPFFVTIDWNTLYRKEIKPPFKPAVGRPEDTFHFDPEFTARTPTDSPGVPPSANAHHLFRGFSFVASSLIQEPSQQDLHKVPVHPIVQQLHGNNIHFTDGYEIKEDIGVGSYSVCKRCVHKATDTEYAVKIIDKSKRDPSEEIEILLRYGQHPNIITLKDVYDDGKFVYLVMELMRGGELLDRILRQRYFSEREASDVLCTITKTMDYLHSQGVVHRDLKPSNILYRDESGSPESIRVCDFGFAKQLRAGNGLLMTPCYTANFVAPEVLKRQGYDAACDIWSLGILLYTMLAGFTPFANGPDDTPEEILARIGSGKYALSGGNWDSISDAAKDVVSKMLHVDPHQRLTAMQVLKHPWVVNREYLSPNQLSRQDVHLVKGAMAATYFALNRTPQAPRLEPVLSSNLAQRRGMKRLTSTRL
Dual specificity mitogen-activated protein kinase kinase 2 (Homo sapiens), sequence (P36507 whole entry): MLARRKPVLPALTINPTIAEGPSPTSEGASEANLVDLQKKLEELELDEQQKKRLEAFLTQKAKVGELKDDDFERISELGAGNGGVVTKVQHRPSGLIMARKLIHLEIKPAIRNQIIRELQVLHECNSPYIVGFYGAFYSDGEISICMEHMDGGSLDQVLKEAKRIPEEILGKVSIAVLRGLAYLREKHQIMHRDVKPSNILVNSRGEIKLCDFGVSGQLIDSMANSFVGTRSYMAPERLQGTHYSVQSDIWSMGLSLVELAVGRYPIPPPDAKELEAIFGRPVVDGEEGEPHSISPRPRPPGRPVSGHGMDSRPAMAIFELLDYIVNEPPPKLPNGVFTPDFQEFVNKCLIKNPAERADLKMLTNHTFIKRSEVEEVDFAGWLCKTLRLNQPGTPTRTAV
Rho-associated protein kinase 2 (Homo sapiens), sequence (O75116 whole entry, looked up): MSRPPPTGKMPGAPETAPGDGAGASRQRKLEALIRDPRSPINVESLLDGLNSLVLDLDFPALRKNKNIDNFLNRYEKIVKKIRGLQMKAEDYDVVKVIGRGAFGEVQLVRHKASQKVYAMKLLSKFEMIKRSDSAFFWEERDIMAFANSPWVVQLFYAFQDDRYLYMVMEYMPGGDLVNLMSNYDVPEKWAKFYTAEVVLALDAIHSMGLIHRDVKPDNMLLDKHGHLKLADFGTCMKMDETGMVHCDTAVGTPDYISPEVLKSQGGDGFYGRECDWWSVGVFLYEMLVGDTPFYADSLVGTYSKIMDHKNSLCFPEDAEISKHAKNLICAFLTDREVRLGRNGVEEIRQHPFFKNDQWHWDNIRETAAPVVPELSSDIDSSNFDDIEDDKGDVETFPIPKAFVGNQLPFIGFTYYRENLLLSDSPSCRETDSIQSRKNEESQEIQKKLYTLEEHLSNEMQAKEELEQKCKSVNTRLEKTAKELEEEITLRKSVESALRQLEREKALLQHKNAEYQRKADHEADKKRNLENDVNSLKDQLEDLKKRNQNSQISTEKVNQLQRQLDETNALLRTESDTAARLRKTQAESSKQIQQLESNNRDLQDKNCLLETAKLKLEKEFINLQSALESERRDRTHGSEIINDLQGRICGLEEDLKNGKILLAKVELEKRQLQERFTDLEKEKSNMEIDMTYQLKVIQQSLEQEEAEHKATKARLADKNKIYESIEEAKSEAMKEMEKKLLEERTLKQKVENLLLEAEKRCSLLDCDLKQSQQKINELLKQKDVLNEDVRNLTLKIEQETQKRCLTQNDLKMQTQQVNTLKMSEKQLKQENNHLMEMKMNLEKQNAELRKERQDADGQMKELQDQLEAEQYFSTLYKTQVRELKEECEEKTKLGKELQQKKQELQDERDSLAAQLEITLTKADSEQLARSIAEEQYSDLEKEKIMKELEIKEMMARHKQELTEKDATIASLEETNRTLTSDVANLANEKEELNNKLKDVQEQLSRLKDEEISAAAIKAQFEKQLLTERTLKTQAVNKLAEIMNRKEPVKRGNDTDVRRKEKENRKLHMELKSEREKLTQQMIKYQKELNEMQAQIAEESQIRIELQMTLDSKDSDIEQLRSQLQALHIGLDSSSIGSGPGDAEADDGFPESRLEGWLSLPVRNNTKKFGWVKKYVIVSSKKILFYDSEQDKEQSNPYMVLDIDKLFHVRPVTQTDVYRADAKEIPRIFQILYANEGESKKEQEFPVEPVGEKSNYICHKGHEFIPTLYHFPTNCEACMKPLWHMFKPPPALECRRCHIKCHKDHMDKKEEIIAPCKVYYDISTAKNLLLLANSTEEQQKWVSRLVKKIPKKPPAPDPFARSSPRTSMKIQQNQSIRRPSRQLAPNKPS
Misshapen-like kinase 1 (Homo sapiens), sequence (Q8N4C8 whole entry, looked up): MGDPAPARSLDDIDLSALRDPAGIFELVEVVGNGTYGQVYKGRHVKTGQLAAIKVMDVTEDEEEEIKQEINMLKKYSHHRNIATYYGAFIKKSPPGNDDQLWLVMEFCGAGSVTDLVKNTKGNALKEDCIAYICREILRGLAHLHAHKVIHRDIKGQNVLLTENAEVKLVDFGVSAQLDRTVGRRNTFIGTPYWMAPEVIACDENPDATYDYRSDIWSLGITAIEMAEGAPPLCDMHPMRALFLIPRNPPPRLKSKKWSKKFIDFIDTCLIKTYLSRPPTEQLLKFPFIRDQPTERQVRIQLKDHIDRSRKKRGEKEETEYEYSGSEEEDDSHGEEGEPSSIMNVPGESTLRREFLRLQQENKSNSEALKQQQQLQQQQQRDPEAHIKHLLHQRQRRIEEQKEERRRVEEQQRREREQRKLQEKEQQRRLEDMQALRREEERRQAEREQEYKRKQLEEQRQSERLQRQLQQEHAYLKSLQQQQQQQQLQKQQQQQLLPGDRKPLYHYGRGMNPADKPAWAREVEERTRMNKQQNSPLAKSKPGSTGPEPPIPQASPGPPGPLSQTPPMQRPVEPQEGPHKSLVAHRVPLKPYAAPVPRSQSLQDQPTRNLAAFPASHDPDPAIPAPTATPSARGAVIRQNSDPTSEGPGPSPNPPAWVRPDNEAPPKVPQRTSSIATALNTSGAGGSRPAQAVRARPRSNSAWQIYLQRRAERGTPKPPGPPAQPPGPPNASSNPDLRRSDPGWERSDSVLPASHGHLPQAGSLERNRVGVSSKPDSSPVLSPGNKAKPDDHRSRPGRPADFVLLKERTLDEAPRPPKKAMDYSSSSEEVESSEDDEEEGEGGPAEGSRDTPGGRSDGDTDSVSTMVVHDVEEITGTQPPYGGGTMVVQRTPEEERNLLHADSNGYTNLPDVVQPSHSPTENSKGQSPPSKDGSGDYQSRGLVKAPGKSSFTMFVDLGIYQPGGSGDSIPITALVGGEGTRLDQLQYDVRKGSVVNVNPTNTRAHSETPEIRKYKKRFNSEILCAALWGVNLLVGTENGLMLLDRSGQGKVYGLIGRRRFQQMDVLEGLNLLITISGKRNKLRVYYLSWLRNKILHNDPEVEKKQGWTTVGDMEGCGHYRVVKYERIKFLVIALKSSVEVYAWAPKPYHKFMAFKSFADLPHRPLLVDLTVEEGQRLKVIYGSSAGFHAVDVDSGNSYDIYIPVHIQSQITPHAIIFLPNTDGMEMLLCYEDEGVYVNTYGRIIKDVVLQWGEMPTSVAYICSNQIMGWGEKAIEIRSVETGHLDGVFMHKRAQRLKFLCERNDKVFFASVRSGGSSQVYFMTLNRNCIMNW
RAC-beta serine/threonine-protein kinase (Homo sapiens), sequence (P31751 whole entry, the tested form may be a part): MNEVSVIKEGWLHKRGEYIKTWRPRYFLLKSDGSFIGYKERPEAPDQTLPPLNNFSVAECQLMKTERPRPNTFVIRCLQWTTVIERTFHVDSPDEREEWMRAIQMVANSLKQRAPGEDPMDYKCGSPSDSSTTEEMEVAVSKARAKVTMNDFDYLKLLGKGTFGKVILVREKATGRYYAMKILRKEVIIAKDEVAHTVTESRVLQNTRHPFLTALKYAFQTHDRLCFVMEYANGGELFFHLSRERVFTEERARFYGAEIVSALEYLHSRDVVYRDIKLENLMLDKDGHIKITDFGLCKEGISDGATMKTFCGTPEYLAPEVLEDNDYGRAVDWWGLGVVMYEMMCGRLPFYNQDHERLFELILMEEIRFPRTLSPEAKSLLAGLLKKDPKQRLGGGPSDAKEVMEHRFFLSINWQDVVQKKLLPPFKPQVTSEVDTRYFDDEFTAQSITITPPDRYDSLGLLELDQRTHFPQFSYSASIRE

Usually inhibition stands for the relative decrease from the control value, in per cent. Read a high inhibition as strong suppression. With `Nc1ncc(-c2cccc([N+](=O)[O-])c2F)cc1-c1ccc2c(c1)CCNC2=O`, the inhibition in experiment [1] is > 90%; in [2] it was 0%; in experiment [3] it was 0%.
In the case of `Nc1ncc(-c2ccc(NS(=O)(=O)C3CC3)cc2OC2CCCCC2)cc1-c1ccc2c(c1)CCNC2=O`, the inhibition was 50% in experiment [1]; 50% in [4]; 0% in experiment [5]; 0% in experiment [6]; 0% in experiment [7]; 0% in experiment [8]. Moreover, the inhibition in [9] was > 90%.
In the case of `CN(C1CC1)S(=O)(=O)c1ccc(-c2cnc(N)c(-c3ccc4c(c3)CCNC4=O)c2)c(F)c1`, the inhibition in experiment [1] is > 90%; in [4], 0%; in experiment [5], < 90%; in experiment [2], 0%; in experiment [3], 0%; in [10], 0%. In experiment [11], this compound registered an inhibition of 0%.
Regarding `Nc1ncc(-c2ccc(NS(=O)(=O)C3CC3)cc2F)cc1-c1ccc2c(c1)CCNC2=O`, the inhibition was 0% in experiment [4]; 0% in [5]; 0% in experiment [6]; 0% in experiment [7]; 0% in experiment [11]; > 90% in experiment [9].
With `Nc1ncc(-c2cccc3ncsc23)cc1-c1ccc2c(c1)CCNC2=O`, the inhibition in experiment [1] is > 90%; in [4], 0%; in [5], < 75%; in experiment [2] it was 0%; in experiment [3] it was 0%; in experiment [8], 0%. Also, the inhibition in experiment [10] and in experiment [11] was 0% in each case.
`COc1cc(NS(=O)(=O)C2CC2)ccc1-c1cnc(N)c(-c2ccc3c(c2)CCNC3=O)c1`: the inhibition amounted to 50% in experiment [1]; 0% in experiment [4]; 0% in experiment [6]; 0% in [7]; 0% in experiment [8]; 0% in experiment [10]. Also, the inhibition in [11] and in experiment [9] was 0% each time.
